Measured values reported in US20260274832A1, “COMPOUNDS AND THEIR USE IN TREATING CANCER” (ASTRAZENECA AB, priority 2023, published 2026).

What was measured:
[1] = target: T1, AR (L702H) in LNCaP cells (Homo sapiens, UniProt P10275, L702H/T878A); test: LNCaP Androgen Receptor L702H Imaging Assay (LNCaP cells engineered by CRISPR/Cas9); assay type: cell-based; conditions: LNCaP cells with AR L702H mutation, 24 h incubation; for DC50: concentration giving 50% of maximum degradation of AR (L702H) per curve fit; for Dmax: LNCaP
T1 construct: engineered to introduce the mutation L702H into the AR gene using CRISPR/Cas9; endogenous in cells; host or cells: LNCaP cells edited by CRISPR/Cas9 at the AR gene
T1 sequence (P10275 whole entry L702H/T878A): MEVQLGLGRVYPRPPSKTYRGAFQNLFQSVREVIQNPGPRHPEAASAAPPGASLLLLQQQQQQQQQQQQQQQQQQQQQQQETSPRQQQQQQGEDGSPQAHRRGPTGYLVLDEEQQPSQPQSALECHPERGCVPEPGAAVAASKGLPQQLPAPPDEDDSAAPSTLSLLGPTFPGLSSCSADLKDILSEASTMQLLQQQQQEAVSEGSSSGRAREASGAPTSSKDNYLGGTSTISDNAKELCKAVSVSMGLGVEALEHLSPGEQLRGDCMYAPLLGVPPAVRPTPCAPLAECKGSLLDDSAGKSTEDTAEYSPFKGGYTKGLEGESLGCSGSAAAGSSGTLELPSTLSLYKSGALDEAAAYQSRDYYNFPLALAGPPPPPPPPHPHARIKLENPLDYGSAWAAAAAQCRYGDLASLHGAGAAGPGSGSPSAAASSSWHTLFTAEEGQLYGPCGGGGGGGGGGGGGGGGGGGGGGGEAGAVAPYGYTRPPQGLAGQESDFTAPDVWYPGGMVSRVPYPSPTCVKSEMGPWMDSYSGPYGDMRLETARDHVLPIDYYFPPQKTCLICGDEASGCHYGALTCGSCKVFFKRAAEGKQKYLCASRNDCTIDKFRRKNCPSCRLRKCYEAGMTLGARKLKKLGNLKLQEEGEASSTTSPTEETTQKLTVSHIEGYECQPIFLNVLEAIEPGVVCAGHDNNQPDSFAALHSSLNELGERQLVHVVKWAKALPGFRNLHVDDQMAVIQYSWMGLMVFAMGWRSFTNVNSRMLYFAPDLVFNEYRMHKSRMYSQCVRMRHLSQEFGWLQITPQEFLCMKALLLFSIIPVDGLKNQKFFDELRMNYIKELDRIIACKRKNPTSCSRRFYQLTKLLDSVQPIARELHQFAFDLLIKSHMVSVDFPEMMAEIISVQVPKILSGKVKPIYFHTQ
T1 sequence (Q96SW2 whole entry partner): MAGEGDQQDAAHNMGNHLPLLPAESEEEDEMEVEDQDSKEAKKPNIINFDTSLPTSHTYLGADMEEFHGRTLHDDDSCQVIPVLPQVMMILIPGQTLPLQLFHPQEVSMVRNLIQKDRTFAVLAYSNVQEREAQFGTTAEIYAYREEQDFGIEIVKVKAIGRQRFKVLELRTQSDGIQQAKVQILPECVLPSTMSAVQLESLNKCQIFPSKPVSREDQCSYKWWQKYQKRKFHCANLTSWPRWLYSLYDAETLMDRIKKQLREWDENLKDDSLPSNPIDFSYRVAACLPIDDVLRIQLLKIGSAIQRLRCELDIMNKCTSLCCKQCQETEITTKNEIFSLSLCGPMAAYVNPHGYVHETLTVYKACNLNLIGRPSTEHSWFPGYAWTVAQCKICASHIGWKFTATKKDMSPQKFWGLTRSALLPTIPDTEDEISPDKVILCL
How it was run: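 CRISPR-engineered LNCaP cells carrying AR L702H were treated 24 h at 37 °C with a 12-point compound dose response (0.3% DMSO), then fixed and immunostained for AR with DRAQ5 nuclear counterstain. Nuclear AR was quantified by imaging, normalized to positive control; DC50 and Dmax came from Hill or bell-shaped fits.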

[2] = target: T2, AR (AR-full length) in LNCaP cells (Homo sapiens, UniProt P10275, T878A); test: LNCaP Androgen Receptor Imaging Assay (immunofluorescence of endogenous nuclear AR); assay type: cell-based; conditions: 24 h incubation; for DC50: concentration giving 50% of maximum degradation of AR per curve fit, single experiment or average of two or more; for Dmax: LNCaP
T2 construct: the prostate cancer cell line LNCaP (expressing AR-full length); endogenous in cells; host or cells: LNCaP
T2 sequence (P10275 whole entry T878A): as the sequence (P10275 whole entry L702H/T878A) above, with H702L counted along it
T2 sequence (Q96SW2 whole entry partner): as the sequence (Q96SW2 whole entry partner) above
How it was run: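 LNCaP cells (12,000/well) received a 12-point compound dose series (0.3% DMSO) for 24 h at 37° C., then were PFA-fixed and stained for AR (AR441) and nuclei (DRAQ5). Nuclear AR was quantified by imaging, normalized to a 3 μM AR PROTAC control; DC50 and Dmax came from Hill/bell curve fits.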

[3] = maximum degradation observed, normalized as % of positive control
[4] = maximum degradation observed, normalized as % of positive control (prior art AR PROTAC at 3 μM)

Structure (SMILES) | DC50 [1] [nM] | LNCaP AR (L702H) Degradation Dmax [1, 3] [%] | DC50 [2] [nM] | LNCaP AR Degradation Dmax [2, 4] [%] | Dmax [2, 4] [%] | Dmax [1, 3] [%]
N#Cc1c[nH]c2c(N3CCCC(c4ccc(N5CCC(CN6CCC(n7ccc8c(N9CCC(=O)NC9=O)cccc87)CC6)CC5)nc4)C3)ccc(Cl)c12 (single isomer, unassigned) [Example 116, 4-Chloro-7-[(3R*)-3-{6-[4-({4-[4-(2,4-dioxo-1,3-diazinan-1-yl)-1H-indol-1-yl]piperidin-1-yl}methyl)piperidin-1-yl]pyridin-3-yl}piperidin-1-yl]-1H-indole-3-carbonitrile] | 23 | 97 | 11 | 103 | – | –
Cc1ccc(N2CCN(c3ccc(OCCCCN4CCN(c5ccc6c(c5)CN(C5CCC(=O)NC5=O)C6=O)CC4)cc3)CC2)c2[nH]cc(C#N)c12 (stereo not drawn) [Example 95, 7-{4-[4-(4-{4-[2-(2,6-Dioxopiperidin-3-yl)-1-oxo-2,3-dihydro-1H-isoindol-5-yl]piperazin-1-yl}butoxy)phenyl]piperazin-1-yl}-4-methyl-1H-indole-3-carbonitrile] | > 3000 | – | 10 | – | 54 | –
N#Cc1c[nH]c2c(N3CCC[C@@H](c4ccc(N5CCC(CN6Cc7cc8c(cc7C6)C(=O)N(C6CCC(=O)NC6=O)C8=O)CC5)cc4)C3)ccc(Cl)c12 (stereo partly drawn) [Example 77, 4-Chloro-7-{(3S)-3-[4-(4-{[6-(2,6-dioxopiperidin-3-yl)-5,7-dioxo-3,5,6,7-tetrahydropyrrolo[3,4-f]isoindol-2(1H)-yl]methyl}piperidin-1-yl)phenyl]piperidin-1-yl}-1H-indole-3-carbonitrile] | 67 | – | 14 | – | 79 | 69
Cc1ccc(C2CCCN(c3cccc(OCCCCN4CCN(c5ccc6c(c5)CN(C5CCC(=O)NC5=O)C6=O)CC4)c3)C2)c2[nH]cc(C#N)c12 (single isomer, unassigned) [Example 80, 7-{(3R*)-1-[3-(4-{4-[2-(2,6-dioxopiperidin-3-yl)-1-oxo-2,3-dihydro-1H-isoindol-5-yl]piperazin-1-yl}butoxy)phenyl]piperidin-3-yl}-4-methyl-1H-indole-3-carbonitrile] | 3100 | – | 38 | – | 64 | 100
Cc1ccc(N2CCC(c3ccc(N4CCC(CN5CCN(Cc6cccc7c6n(C)c(=O)n7C6CCC(=O)NC6=O)CC5)CC4)cc3)CC2)c2[nH]cc(C#N)c12 (stereo not drawn) [Example 69, 7-[4-(4-{4-[(4-{[1-(2,6-Dioxopiperidin-3-yl)-3-methyl-2-oxo-2,3-dihydro-1H-benzimidazol-4-yl]methyl}piperazin-1-yl)methyl]piperidin-1-yl}phenyl)piperidin-1-yl]-4-methyl-1H-indole-3-carbonitrile] | 5 | – | 9 | – | 92 | 94
Cn1c(C2CCN(CC3CCN(c4ccc([C@H]5CCCN(c6ccc(Cl)c7c(C#N)c[nH]c67)C5)cc4)CC3)CC2)cc2cc(F)c(N3CCC(=O)NC3=O)cc21 [Example 136, 4-Chloro-7-[(3R)-3-{4-[4-({4-[6-(2,4-dioxo-1,3-diazinan-1-yl)-5-fluoro-1-methyl-1H-indol-2-yl]piperidin-1-yl}methyl)piperidin-1-yl]phenyl}piperidin-1-yl]-1H-indole-3-carbonitrile] | 14 | – | 10 | – | 104 | 108
N#Cc1c[nH]c2c(N3CCC(c4ccc(N5CCC(CN6CCN(c7ccc(C(=O)NC8CCC(=O)NC8=O)c(F)c7)CC6)CC5)cc4)CC3)ccc(F)c12 (stereo not drawn) [Example 105, 4-{4-[(1-{4-[1-(3-Cyano-4-fluoro-1H-indol-7-yl)piperidin-4-yl]phenyl}piperidin-4-yl)methyl]piperazin-1-yl}-N-(2,6-dioxopiperidin-3-yl)-2-fluorobenzamide] | 49 | – | 61 | – | 89 | 95
N#Cc1c[nH]c2c(N3CCC(NC(=O)c4ccc(N5CCC(CN6Cc7cc8c(cc7C6)C(=O)N(C6CCC(=O)NC6=O)C8=O)CC5)cc4F)CC3)ccc(Cl)c12 (stereo not drawn) [Example 155, N-[1-(4-Chloro-3-cyano-1H-indol-7-yl)piperidin-4-yl]-4-(4-{[6-(2,6-dioxopiperidin-3-yl)-5,7-dioxo-3,5,6,7-tetrahydropyrrolo[3,4-f]isoindol-2(1H)-yl]methyl}piperidin-1-yl)-2-fluorobenzamide] | 17 | – | 4 | – | 80 | 82

Continued by falling DC50 [1], values first:

DC50 [1] [nM] | LNCaP AR (L702H) Degradation Dmax [1, 3] [%] | DC50 [2] [nM] | LNCaP AR Degradation Dmax [2, 4] [%] | Dmax [2, 4] [%] | Dmax [1, 3] [%] | Structure (SMILES)
38 | – | 18 | – | 92 | 104 | N#Cc1n[nH]c2c(N3CCC[C@@H](c4ccc(N5CCC(CN6Cc7cc8c(cc7C6)C(=O)N(C6CCC(=O)NC6=O)C8=O)CC5)cc4)C3)ccc(Cl)c12 (stereo partly drawn) [Example 76, 4-Chloro-7-{(3S)-3-[4-(4-{[6-(2,6-dioxopiperidin-3-yl)-5,7-dioxo-3,5,6,7-tetrahydropyrrolo[3,4-f]isoindol-2(1H)-yl]methyl}piperidin-1-yl)phenyl]piperidin-1-yl}-1H-indazole-3-carbonitrile]
33 | – | 16 | – | 88 | 99 | COc1nc(N2CCN(CC3CCN(c4ccc([C@@H]5CCCN(c6ccc(Cl)c7c(C#N)c[nH]c67)C5)cc4)CC3)CC2)cc2c1C(=O)N(C1CCC(=O)NC1=O)C2 (single isomer, unassigned) [Example 39, 4-Chloro-7-[(3S)-3-(4-{4-[(4-{2-[(3R*)-2,6-dioxopiperidin-3-yl]-4-methoxy-3-oxo-2,3-dihydro-1H-pyrrolo[3,4-c]pyridin-6-yl}piperazin-1-yl)methyl]piperidin-1-yl}phenyl)piperidin-1-yl]-1H-indole-3-carbonitrile]
5 | – | 4 | – | 99 | 106 | N#Cc1c[nH]c2c(N3CCC(c4ccc(N5CCC(N6CCC(n7ccc8c(N9CCC(=O)NC9=O)cccc87)CC6)CC5)cc4)CC3)ccc(Cl)c12 [Example 111, 4-Chloro-7-[4-(4-{4-[4-(2,4-dioxo-1,3-diazinan-1-yl)-1H-indol-1-yl][1,4′-bipiperidin]-1′-yl}phenyl)piperidin-1-yl]-1H-indole-3-carbonitrile]
3 | – | 2 | – | 109 | 114 | N#Cc1c[nH]c2c(N3CCC(NC(=O)c4ccc(N5CCC(CN6CCC(n7ccc8cc(N9CCC(=O)NC9=O)ccc87)CC6)CC5)cc4F)CC3)ccc(Cl)c12 [Example 153, N-[1-(4-Chloro-3-cyano-1H-indol-7-yl)piperidin-4-yl]-4-[4-({4-[5-(2,4-dioxo-1,3-diazinan-1-yl)-1H-indol-1-yl]piperidin-1-yl}methyl)piperidin-1-yl]-2-fluorobenzamide]
1 | – | 1 | – | 106 | 110 | N#Cc1cc(N2CCC(CN3CCC(n4ccc5c(N6CCC(=O)NC6=O)cccc54)CC3)CC2)ccc1C(=O)NC1CCN(c2ccc(Cl)c3c(C#N)c[nH]c23)CC1 [Example 162, N-[1-(4-Chloro-3-cyano-1H-indol-7-yl)piperidin-4-yl]-2-cyano-4-[4-({4-[4-(2,4-dioxo-1,3-diazinan-1-yl)-1H-indol-1-yl]piperidin-1-yl}methyl)piperidin-1-yl]benzamide]
